Reference: US11865128B2, “Aminoglycosides and uses thereof in treating genetic disorders” (Technion Research & Development Foundation Limited, priority 2010, dated 2024)
≈ marks a conversion by molar mass, not a printed value. Entries after “also recorded” stand apart in the source; their conditions may differ. Where two headings read alike, the source gives them in different places.

Columns and labels:
[1] = test system: Eukaryotic system (eukaryotic cytoplasmic ribosome); assay: Eukaryotic translation inhibition, coupled transcription/translation, luciferase detection; assay type: biochemical; settings: for Prokaryotic versus Eukaryotic selectivity IC50^Euk/IC50^Pro: ratio of eukaryotic to prokaryotic translation inhibition IC50; for more specific to the eukaryotic ribosome than parent (NB30 or NB54): comparison of eukaryotic IC50 values with parent structure
From the text: Prokaryotic and eukaryotic translation inhibition was quantified in coupled transcription/translation assays by using active luciferase detection, performed as described hereinabove. […] In all biological tests, all tested aminoglycosides were in their sulfate salt forms. The concentrations reported refer to that of the free amine form of each aminoglycoside.
(§1) In all biological experiments conducted, all tested aminoglycosides were in their sulfate salt forms. The concentrations reported in Table 3 refer to that of the free amine form of each aminoglycoside. Prokaryotic and eukaryotic translation inhibition was quantified in coupled transcription/translation assays as previously described. The half-maximal concentration (IC50) values were obtained from fitting concentration response curves to the data of at least three independent experiments, using GraFit 5 software.

[2] = test system: nonsense mutation constructs R3X, R245X, G542X, W1282X, Q70X, R3381X (PCDH15, CFTR, IDUA, Dystrophin); assay: In vitro stop codon readthrough assay, p2Luc dual luciferase, TNT reticulocyte lysate; assay type: biochemical; settings: cell-free, mutations tested; comparison in words from FIGS. 2, 3, 5-7
From the text: DNA fragments derived from PCDH15, CFTR, Dystrophin and IDUA cDNAs, including the tested nonsense mutation or the corresponding wild type (wt) codon, and four to six upstream and downstream flanking codons were created by annealing following pairs of complementary oligonucleotides:
The fragments were inserted in frame into the polylinker of the p2Luc plasmid between either BamHI and SacI (p.R3X and p.R245X), or SalI and SacI (all the rest) restriction sites.
For the in vitro readthrough assays, the obtained plasm ids, with addition of the tested aminoglycosides were transcribed and translated using the TNT Reticulocyte Lysate Quick Coupled Transcription/Translation System. Luciferase activity was determined after 90 minutes of incubation at 30° C., using the Dual Luciferase Reporter Assay System (Promega™).
Initially, the influence of the chiral C5″-methyl group on readthrough potential was evaluated on the pseudo-trisaccharides NB118 and NB119 by using a dual luciferase reporter assay system as described hereinabove. Briefly, DNA fragments were cloned between BamHI and SacI restriction sites of the p2luc vector and the obtained constructs were transcribed and translated using TNT quick coupled transcription/translation system. The amount of the translated products was evaluated using the dual luciferase reporter assay system and used to calculate the suppression level.

E. coli R477/100 = assay: Antibacterial activity MIC, double-microdilution; assay type: cell-based, Escherichia coli; settings: read-out: Antibacterial activity MIC E. coli R477/100
B. subtilis ATCC6633 = assay: Antibacterial activity MIC, double-microdilution; assay type: cell-based, Bacillus subtilis; settings: read-out: Antibacterial activity MIC B. subtilis ATCC6633
[3] = target: Prokaryotic system (prokaryotic ribosome); assay: Prokaryotic translation inhibition, coupled transcription/translation, luciferase detection; assay type: biochemical
Procedure: Prokaryotic and eukaryotic translation inhibition was quantified in coupled transcription/translation assays by using active luciferase detection, performed as described hereinabove. […] All the experiments were performed in duplicates and analogous results were obtained in three different experiments. In all biological tests, all tested aminoglycosides were in their sulfate salt forms. The concentrations reported refer to that of the free amine form of each aminoglycoside.
as §1, with “software. All the experiments were performed in duplicates and analogous results were obtained in three different experiments.” for “software.”

[4] = Cell toxicity LC50 in HEK-293 cells; assay type: cell-based; settings: human
Procedure: (§2) In order to ensure suitable cell viability for each of the tested compounds at the concentrations tested, cell toxicity was evaluated for each compound by measuring the half-maximal-lethal concentration value (LC50 values) in HEK-293 and HFF (human foreskin fibroblasts) cells.
(§3) The percentages of cell viability were calculated as the ratio between the numbers of living cells in cultures grown in the presence of the tested compounds, versus cultures grown under the identical protocol but without the tested compound. The results represent averages of at least three independent experiments.
(§4) The half-maximal lethal concentration (LC50) values were obtained from fitting concentration-response curves to the data of at least three independent experiments, using GraFit 5 software.

[5] = Cell toxicity LC50 in HFF cells; assay type: cell-based; settings: human
Procedure: as §2, §3, §4

[6] = test system: nonsense mutation constructs R3X, R245X, Q70X, W1282X, G542X in HEK-293 cells; assay: Ex vivo stop codon readthrough assay, p2luc constructs transfected to HEK-293 cells; assay type: cell-based, human; settings: ex vivo in HEK-293, all the mutations tested, FIGS. 4, 8-10
Procedure: For the ex vivo readthrough assays, the constructs harboring the R3X, R245X, Q70X and W1282X mutations were transfected to HEK-293 cells with Lipofectamine 2000 (Invitrogen) and addition of the tested compounds was performed 6 hours post transfection. The cells were harvested following 16 hours of incubation with the tested aminoglycosides. Stop codon readthrough was calculated as previously described (see, Grentzmann, G. et al., RNA, 1998, 4, p. 479).
The constructs were transfected into a human embryonic kidney cell line (HEK-293) and incubated with varying concentrations of NB122, NB123, NB54 and the control drug gentamicin, and the results are presented in FIGS. 4A-D.
As described hereinabove, the constructs of p2luc plasmid harboring the R3X, R245X, Q70X and W1282X mutations were transfected to HEK-293 cells using lipofectamine2000 and the tested compounds were added 6 hours post transfection. Cells were harvested after 16 hours incubation and luciferase activity was determined using the dual luciferase reporter assay system (Promega™). Stop codon readthrough was calculated as described previously, and the results are averages of at least three independent experiments.

HEK-293 cells = assay: Cell toxicity LC50 in HEK-293 cells; assay type: cell-based
Procedure: as §2, §3, §4

[7] = test system: HFF (human foreskin fibroblasts) cells; assay: Cell toxicity LC50 in HFF cells; assay type: cell-based
Procedure: as §2, §3, §4

[8] = Table 1, read-out: Translation inhibition Eukaryotic System IC50
[9] = Table 3, read-out: Translation Inhibition IC50^Euk
[10] = Escherichia coli, R477/100, Table 1
[11] = Bacillus subtilis, ATCC6633, Table 1, free amine concentration, sulfate salts tested
[12] = Table 1, read-out: Translation inhibition Prokaryotic system IC50
[13] = Table 3, read-out: Translation Inhibition IC50^Pro
[14] = HEK-293 cells, Table 1, read-out: Cell toxicity LC50 HEK-293
[15] = HFF (human foreskin fibroblast) cells, Table 1, read-out: Cell toxicity LC50 HFF
[16] = Table 2, read-out: Translation Inhibition Eukaryotic System IC50
[17] = Table 2, read-out: Translation Inhibition Prokaryotic system IC50

Row | Compound | Prokaryotic versus Eukaryotic selectivity IC50^Euk/IC50^Pro [1] | in vitro readthrough activity (stop codon suppression level) [2] | IC50 [1, 8] | IC50 [1, 9] | MIC (E. coli R477/100; [10]) | MIC (B. subtilis ATCC6633; [11]) | IC50 [3, 12] | IC50 [3, 13] | observed efficacy of aminoglycoside-induced readthrough, order [6] | CC50 [4, 14] | CC50 [5, 15] | also measured
1 | NC1C(OCOC2C(N)[C@H](O[C@H]3C(N)C[C@H](N)C(O)C3O)OC(CO)[C@@H]2O)[C@H](O)C(CO)O[C@@H]1O[C@@H]1C(N)C[C@@H](N)C(O)C1O (stereo partly drawn) [NB33, reference compound] | about 2 | essentially no readthrough activity; also recorded: almost no readthrough activity | – | – | – | – | – | – | – | – | – | –
2 | NC[C@@H]1O[C@H](O[C@H]2[C@@H](O)[C@H](O[C@@H]3[C@@H](O)[C@H](N)C[C@H](N)[C@H]3O[C@H]3O[C@H](CO)[C@@H](O)[C@H](O)[C@H]3N)O[C@@H]2CO)[C@H](N)[C@@H](O)[C@@H]1O [Paromomycin, reference compound] | 1,118 | – | 57 ± 4 µM | 57 ± 4 µM | 22 µM (≈ 13.5 µg/mL) | 1.2 µM | 0.051 ± 0.005 µM | 0.051 ± 0.005 µM | – | – | – | more selective to prokaryotic versus eukaryotic ribosome [1]: 1,118 fold; CC50 [4]: 4100 ± 500 µM; CC50 [5]: 3100 ± 400 µM
3 | C[C@@H](N)[C@H]1O[C@@H](OC2C(O)[C@H](NC(=O)[C@@H](O)CCN)CC(N)[C@H]2O[C@H]2OC(CO)[C@@H](O)C(O)C2N)C(O)C1O (stereo partly drawn) [NB123, 5-O-(5-Amino-5,6-dideoxy-β-D-allofuranosyl)-1-N—[(S)-4-amino-2-hydroxy-butanoyl] paromamine] | 5.7 | – | 4.6 ± 0.6 µM | 4.6 ± 0.6 µM | 1060 µM (≈ 602 µg/mL) | 33 µM | 0.811 ± 0.059 µM | 0.811 ± 0.059 µM | NB122≥NB123>NB54>gentamicin | 13900 ± 1300 µM | 19300 ± 1500 µM | –
4 | C[C@H](N)[C@H]1O[C@@H](OC2C(O)[C@H](N)CC(N)[C@H]2O[C@H]2OC([C@@H](C)O)[C@@H](O)C(O)C2N)C(O)C1O (stereo partly drawn) [NB124, 6′-(R)-Methyl-5-O-(5-amino-5,6-dideoxy-α-L-talofuranosyl)-Paromamine] | 1.3 | improved significantly compared to that of the clinical drug gentamicin | – | 1.49 ± 0.08 µM | – | – | – | 1.1 ± 0.185 µM | NB124>NB125>NB74>gentamicin | – | – | IC50 [1, 16]: 1.49 ± 0.08 µM; MIC (E. coli R477/100; Escherichia coli, R477/100, Table 2): 768 µM (≈ 371 µg/mL); MIC (B. subtilis ATCC6633; Bacillus subtilis, ATCC6633, Table 2): 96 µM (≈ 46.3 µg/mL); IC50 [3, 17]: 1.1 ± 0.185 µM; CC50 ([4]; HEK-293 cells, Table 2, read-out: Cell toxicity LC50 HEK-293): 5400 ± 450 µM; CC50 ([5]; HFF (human foreskin fibroblast) cells, Table 2, read-out: Cell toxicity LC50 HFF): 4750 ± 330 µM
5 | Gentamicin [reference compound] | 2,214 | – | 62 ± 9 µM | 62 ± 9 µM | – | – | 0.028 ± 0.004 µM | 0.028 ± 0.004 µM | NB127 NB128>NB84>gentamicin | – | – | more selective to prokaryotic versus eukaryotic ribosome [1]: 2,214 fold; IC50 [1, 16]: 62 ± 9 µM; observed efficacy of aminoglycoside-induced readthrough, order ([6]; listed as gentamicin): NB122≥NB123>NB54>gentamicin; also recorded: NB124>NB125>NB74>gentamicin; MIC (E. coli R477/100; Table 1): 6 µM; MIC (E. coli R477/100; Table 2): 6 µM; MIC (B. subtilis ATCC6633; Table 1, free amine concentration, sulfate salts tested): <0.75 µM; MIC (B. subtilis ATCC6633; Table 2): <0.75 µM; IC50 [3, 17]: 0.028 ± 0.004 µM; CC50 (HEK-293 cells; Table 1): 2500 ± 300 µM; CC50 (HEK-293 cells; Table 2): 2650 ± 540 µM; CC50 ([7]; Table 1): 3200 ± 300 µM; CC50 ([7]; Table 2): 3210 ± 310 µM
6 | C[C@H](N)[C@H]1O[C@@H](OC2C(O)[C@H](N)CC(N)[C@H]2O[C@H]2OC(CO)[C@@H](O)C(O)C2N)C(O)C1O (stereo partly drawn) [NB118, 5-O-(5-Amino-5,6-dideoxy-α-L-talofuranosyl)-paromamine] | 7.9 | significantly better than that of the clinical drug gentamicin | 16 µM | 15.5 ± 1.3 µM | 2660 µM (≈ 1250 µg/mL) | 83 µM | 1.96 ± 0.206 µM | 1.96 ± 0.206 µM | – | 23500 µM | 21800 ± 500 µM | more specific to the eukaryotic ribosome than parent (NB30 or NB54) [1]: 1.9 fold
7 | C[C@H](N)[C@H]1O[C@@H](OC2C(O)[C@H](NC(=O)[C@@H](O)CCN)CC(N)[C@H]2O[C@H]2OC(CO)[C@@H](O)C(O)C2N)C(O)C1O (stereo partly drawn) [NB122, 5-O-(5-Amino-5,6-dideoxy-α-L-talofuranosyl)-1-N—[(S)-4-amino-2-hydroxy-butanoyl]paromamine] | 2.3 | induced the highest level of readthrough | 5.2 µM | 5.2 ± 0.7 µM | 1070 µM (≈ 608 µg/mL) | 33 µM | 2.27 ± 0.196 µM | 2.27 ± 0.196 µM | NB122≥NB123>NB54>gentamicin | 10100 µM | 8100 ± 1400 µM | more specific to the eukaryotic ribosome than parent (NB30 or NB54) [1]: 4.6 fold
8 | C[C@@H](N)[C@H]1O[C@@H](OC2C(O)[C@H](N)CC(N)[C@H]2O[C@H]2OC(CO)[C@@H](O)C(O)C2N)C(O)C1O (stereo partly drawn) [NB119, 5-O-(5-Amino-5,6-dideoxy-β-D-allofuranosyl)-paromamine] | 13 | comparatively small | 28 ± 1.1 µM | 28 ± 1.1 µM | 4990 µM (≈ 2340 µg/mL) | 78 µM | 2.13 ± 0.478 µM | 2.13 ± 0.478 µM | – | 19800 ± 400 µM | 20100 ± 600 µM | –
